Experimental findings from US20100179093A1, “Neoropeptide-2-Receptor (Y-2R) Agonists” (priority 2008, published 2010) are described below.

Holding throughout (assay type): cell-based
The target in experiment [1] is T1, hNPY2R (Homo sapiens, UniProt P49146).
T1 sequence (P49146 1-381): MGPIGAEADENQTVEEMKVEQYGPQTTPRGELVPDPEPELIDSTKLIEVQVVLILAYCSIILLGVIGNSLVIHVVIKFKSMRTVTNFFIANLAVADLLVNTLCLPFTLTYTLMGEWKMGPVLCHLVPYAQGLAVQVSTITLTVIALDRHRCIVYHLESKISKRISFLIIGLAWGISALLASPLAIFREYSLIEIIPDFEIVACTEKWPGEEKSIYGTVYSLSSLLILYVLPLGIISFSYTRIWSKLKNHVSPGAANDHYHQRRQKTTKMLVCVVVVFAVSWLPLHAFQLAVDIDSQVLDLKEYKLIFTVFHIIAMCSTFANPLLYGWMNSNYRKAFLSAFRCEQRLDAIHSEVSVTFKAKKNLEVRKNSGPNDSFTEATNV
The experiment can be described thus: cAMP Agonist Assay, HEK293/hNPY2R cells. Also on record: expressed in transfected cells; host or cells: HEK293/hNPY2R (G418 selection).

The target of another experiment is T2, Y5R (Homo sapiens, UniProt Q15761).
T2 sequence (Q15761 1-445): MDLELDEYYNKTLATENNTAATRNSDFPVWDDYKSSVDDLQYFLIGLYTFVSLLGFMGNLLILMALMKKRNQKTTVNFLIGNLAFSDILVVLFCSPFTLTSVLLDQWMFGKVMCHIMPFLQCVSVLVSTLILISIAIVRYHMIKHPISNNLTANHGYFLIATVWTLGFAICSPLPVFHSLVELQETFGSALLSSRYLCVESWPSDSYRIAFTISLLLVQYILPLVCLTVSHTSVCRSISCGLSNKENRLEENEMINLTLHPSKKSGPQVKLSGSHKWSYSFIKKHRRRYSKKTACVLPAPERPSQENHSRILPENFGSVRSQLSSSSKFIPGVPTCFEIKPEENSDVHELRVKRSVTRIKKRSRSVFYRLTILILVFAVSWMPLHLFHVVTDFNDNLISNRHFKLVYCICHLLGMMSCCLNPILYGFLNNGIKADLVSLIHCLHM
The experiment in a line: CaFlux Assay (FLIPR), Y5R.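 For Emax: percent of the maximal response of the positive control agonist.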 The settings on record: for Emax: read-out: Y5R FLIPR, percentage in parentheses under the EC50.

Experiment [2] has as its target T1, hNPY2R. The experiment can be described thus: CaFlux Assay (FLIPR), Y2R. Further details: expressed in transfected cells; host or cells: HEK-293 stably expressing G protein chimera Gaqi9.
The target in another experiment is T3, Y1R (Homo sapiens, UniProt P25929).
T3 sequence (P25929 1-384): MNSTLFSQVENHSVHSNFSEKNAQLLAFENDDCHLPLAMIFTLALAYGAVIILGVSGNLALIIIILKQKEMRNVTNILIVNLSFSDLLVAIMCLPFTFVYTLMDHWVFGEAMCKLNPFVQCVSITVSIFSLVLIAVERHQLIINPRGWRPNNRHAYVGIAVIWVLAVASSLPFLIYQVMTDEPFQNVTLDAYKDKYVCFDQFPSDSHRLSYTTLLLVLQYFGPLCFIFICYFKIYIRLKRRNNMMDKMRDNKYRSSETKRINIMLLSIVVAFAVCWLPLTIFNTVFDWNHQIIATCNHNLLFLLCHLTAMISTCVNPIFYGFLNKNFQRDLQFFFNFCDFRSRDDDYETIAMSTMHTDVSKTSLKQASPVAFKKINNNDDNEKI
The experiment in a line: CaFlux Assay (FLIPR), Y1R.

For the next experiment, the target named is Y4R (Homo sapiens, UniProt P50391). The experiment can be described thus: CaFlux Assay (FLIPR), Y4R.
Y4R, sequence (P50391 whole entry): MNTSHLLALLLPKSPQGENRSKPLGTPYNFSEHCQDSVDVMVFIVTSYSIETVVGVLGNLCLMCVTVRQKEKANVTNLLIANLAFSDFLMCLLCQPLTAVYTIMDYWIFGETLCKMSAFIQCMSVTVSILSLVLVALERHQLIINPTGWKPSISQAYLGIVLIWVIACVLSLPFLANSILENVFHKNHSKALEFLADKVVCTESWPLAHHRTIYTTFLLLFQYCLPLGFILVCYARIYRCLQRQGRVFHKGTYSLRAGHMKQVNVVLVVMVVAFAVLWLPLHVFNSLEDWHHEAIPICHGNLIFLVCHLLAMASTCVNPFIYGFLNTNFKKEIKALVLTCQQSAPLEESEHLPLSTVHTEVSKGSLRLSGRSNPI

One may read the EC50 as the concentration giving half of the maximal effect. A higher EC50 goes with a less potent agent. `CCCCCCCCCCCCCCCC(=O)N[C@@H](CCC(=O)N[C@@H](CCC(=O)NCCCC[C@H](NC(=O)[C@@H](N)[C@@H](C)CC)C(=O)N1CCN(c2ccc3ncn(CC(=O)N[C@@H](CCCNC(=N)N)C(=O)N[C@@H](Cc4c[nH]cn4)C(=O)N[C@@H](Cc4ccc(O)cc4)C(=O)N[C@@H](CC(C)C)C(=O)N[C@@H](CC(N)=O)C(=O)N[C@@H](Cc4c[nH]c5ccccc45)C(=O)N[C@H](C(=O)N[C@H](C(=O)N[C@@H](CCCNC(=N)N)C(=O)N[C@@H](CCC(N)=O)C(=O)N(C)[C@@H](CCCNC(=N)N)C(=O)N[C@@H](Cc4ccc(O)cc4)C(N)=O)[C@@H](C)O)C(C)C)c(=O)c3c2)CC1)C(=O)O)C(=O)O` [Example 25]: the EC50 was 0.22 nM on hNPY2R [1]; 443 nM at Y5R; 0.08 nM at hNPY2R [2]; over 5000 nM on Y1R; over 5000 nM at Y4R. Further, the Emax on Y5R turned out to be 70%.
Take `CCCCCCCCCCCCCCCC(=O)NCCC(=O)N[C@@H](CCC(=O)NCCCC[C@H](NC(=O)[C@@H](N)[C@@H](C)CC)C(=O)N1CCN(c2ccc3ncn(CC(=O)N[C@@H](CCCNC(=N)N)C(=O)N[C@@H](Cc4c[nH]cn4)C(=O)N[C@@H](Cc4ccc(O)cc4)C(=O)N[C@@H](CC(C)C)C(=O)N[C@@H](CC(N)=O)C(=O)N[C@@H](Cc4c[nH]c5ccccc45)C(=O)N[C@H](C(=O)N[C@H](C(=O)N[C@@H](CCCNC(=N)N)C(=O)N[C@@H](CCC(N)=O)C(=O)N(C)[C@@H](CCCNC(=N)N)C(=O)N[C@@H](Cc4ccc(O)cc4)C(N)=O)[C@@H](C)O)C(C)C)c(=O)c3c2)CC1)C(=O)O` [Example 26]: the half-maximal effective concentration (EC50) was 0.15 nM on hNPY2R [1]; 129 nM on Y5R; 0.045 nM on hNPY2R [2]; over 5000 nM at Y1R; over 5000 nM on Y4R. Further, the Emax on Y5R is 70%.
Take `CC[C@H](C)[C@H](N)C(=O)N[C@@H](CCCCNC(=O)CC[C@H](NC(=O)CC[C@H](NC(=O)CCCCCCCCCCCCCCCBr)C(=O)O)C(=O)O)C(=O)N1CCN(c2ccc3ncn(CC(=O)N[C@@H](CCCNC(=N)N)C(=O)N[C@@H](Cc4c[nH]cn4)C(=O)N[C@@H](Cc4ccc(O)cc4)C(=O)N[C@@H](CC(C)C)C(=O)N[C@@H](CC(N)=O)C(=O)N[C@@H](Cc4c[nH]c5ccccc45)C(=O)N[C@H](C(=O)N[C@H](C(=O)N[C@@H](CCCNC(=N)N)C(=O)N[C@@H](CCC(N)=O)C(=O)N(C)[C@@H](CCCNC(=N)N)C(=O)N[C@@H](Cc4ccc(O)cc4)C(N)=O)[C@@H](C)O)C(C)C)c(=O)c3c2)CC1` [Example 27]: the EC50 on hNPY2R [1] was 0.4 nM; at Y5R, 2540 nM; at hNPY2R [2] it was 0.23 nM; at Y1R it was over 5000 nM; on Y4R, over 5000 nM.
Consider `CCCCCCCCCCCCCCCC(=O)N[C@@H](CCC(=O)N[C@@H](CCC(=O)NCCCC[C@H](NC(=O)[C@@H](NC(=O)[C@@H]1CCC(=O)N1)[C@@H](C)CC)C(=O)N1CCN(c2ccc3ncn(CC(=O)N[C@@H](CCCNC(=N)N)C(=O)N[C@@H](Cc4c[nH]cn4)C(=O)N[C@@H](Cc4ccc(O)cc4)C(=O)N[C@@H](CC(C)C)C(=O)N[C@@H](CC(N)=O)C(=O)N[C@@H](Cc4c[nH]c5ccccc45)C(=O)N[C@H](C(=O)N[C@H](C(=O)N[C@@H](CCCNC(=N)N)C(=O)N[C@@H](CCC(N)=O)C(=O)N(C)[C@@H](CCCNC(=N)N)C(=O)N[C@@H](Cc4ccc(O)cc4)C(N)=O)[C@@H](C)O)C(C)C)c(=O)c3c2)CC1)C(=O)O)C(=O)O` [Example 28], for which the EC50 on hNPY2R [1] was 0.21 nM; at Y5R, 2060 nM; at hNPY2R [2], 0.176 nM; at Y1R it was over 5000 nM; at Y4R, over 5000 nM.
For `CCCCCCCCCCCCCCCCCCCC(=O)NCCCCCC(=O)NCCCC[C@H](NC(=O)[C@@H](N)[C@@H](C)CC)C(=O)N1CCN(c2ccc3ncn(CC(=O)N[C@@H](CCCNC(=N)N)C(=O)N[C@@H](Cc4c[nH]cn4)C(=O)N[C@@H](Cc4ccc(O)cc4)C(=O)N[C@@H](CC(C)C)C(=O)N[C@@H](CC(N)=O)C(=O)N[C@@H](Cc4c[nH]c5ccccc45)C(=O)N[C@H](C(=O)N[C@H](C(=O)N[C@@H](CCCNC(=N)N)C(=O)N[C@@H](CCC(N)=O)C(=O)N(C)[C@@H](CCCNC(=N)N)C(=O)N[C@@H](Cc4ccc(O)cc4)C(N)=O)[C@@H](C)O)C(C)C)c(=O)c3c2)CC1` [Example 30], the concentration for a half-maximal effect (EC50) is 0.14 nM at hNPY2R [1]; 306 nM on Y5R; 0.96 nM on hNPY2R [2]; over 5000 nM on Y1R; over 5000 nM at Y4R. Also, the Emax on Y5R was 28%.
For `CCCCCCCCCCCCCCCCCCCC(=O)N[C@@H](CCC(=O)N[C@@H](CCC(=O)NCCCC[C@H](NC(=O)[C@@H](N)[C@@H](C)CC)C(=O)N1CCN(c2ccc3ncn(CC(=O)N[C@@H](CCCNC(=N)N)C(=O)N[C@@H](Cc4c[nH]cn4)C(=O)N[C@@H](Cc4ccc(O)cc4)C(=O)N[C@@H](CC(C)C)C(=O)N[C@@H](CC(N)=O)C(=O)N[C@@H](Cc4c[nH]c5ccccc45)C(=O)N[C@H](C(=O)N[C@H](C(=O)N[C@@H](CCCNC(=N)N)C(=O)N[C@@H](CCC(N)=O)C(=O)N(C)[C@@H](CCCNC(=N)N)C(=O)N[C@@H](Cc4ccc(O)cc4)C(N)=O)[C@@H](C)O)C(C)C)c(=O)c3c2)CC1)C(=O)O)C(=O)O` [Example 31], the EC50 on hNPY2R [1] is 0.07 nM; at Y5R, 634 nM; on hNPY2R [2], 0.091 nM; at Y1R, over 5000 nM; at Y4R, over 5000 nM. In addition, the Emax at Y5R stood at 60%.
For `CCCCCCCCCCCCCCCC(=O)NCCOCCOCCOCCOCCC(=O)NCCCC[C@H](NC(=O)[C@@H](N)[C@@H](C)CC)C(=O)N1CCN(c2ccc3ncn(CC(=O)N[C@@H](CCCNC(=N)N)C(=O)N[C@@H](Cc4c[nH]cn4)C(=O)N[C@@H](Cc4ccc(O)cc4)C(=O)N[C@@H](CC(C)C)C(=O)N[C@@H](CC(N)=O)C(=O)N[C@@H](Cc4c[nH]c5ccccc45)C(=O)N[C@H](C(=O)N[C@H](C(=O)N[C@@H](CCCNC(=N)N)C(=O)N[C@@H](CCC(N)=O)C(=O)N(C)[C@@H](CCCNC(=N)N)C(=O)N[C@@H](Cc4ccc(O)cc4)C(N)=O)[C@@H](C)O)C(C)C)c(=O)c3c2)CC1` [Example 32], the EC50 at hNPY2R [1] was 0.19 nM; on Y5R, 973 nM; at hNPY2R [2], 0.26 nM; on Y1R, over 5000 nM; at Y4R, over 5000 nM. Further, the Emax on Y5R was 28%.
`CCCCCCCCCCCCCCCCCCCC(=O)NCCOCCOCCOCCOCCC(=O)NCCCC[C@H](NC(=O)[C@@H](N)[C@@H](C)CC)C(=O)N1CCN(c2ccc3ncn(CC(=O)N[C@@H](CCCNC(=N)N)C(=O)N[C@@H](Cc4c[nH]cn4)C(=O)N[C@@H](Cc4ccc(O)cc4)C(=O)N[C@@H](CC(C)C)C(=O)N[C@@H](CC(N)=O)C(=O)N[C@@H](Cc4c[nH]c5ccccc45)C(=O)N[C@H](C(=O)N[C@H](C(=O)N[C@@H](CCCNC(=N)N)C(=O)N[C@@H](CCC(N)=O)C(=O)N(C)[C@@H](CCCNC(=N)N)C(=O)N[C@@H](Cc4ccc(O)cc4)C(N)=O)[C@@H](C)O)C(C)C)c(=O)c3c2)CC1` [Example 33]: the 50% effective concentration (EC50) at hNPY2R [1] is 0.13 nM; at Y5R it was 241 nM; at hNPY2R [2], 1.08 nM; on Y1R it was over 5000 nM; at Y4R it was over 5000 nM. In addition, the Emax on Y5R is 53%.
